Read-outs that look alike come from different tables or passages of the source.
Key:
Helicobacter pylori [1] = test: microbe, parasite or virus in culture
Helicobacter pylori [2] = test system: Helicobacter pylori
[3] = test system: clarithromycin and/or metronidazole - intermediate or resistant strains of Helicobacter pylori; test: Bacteriostatic activity (MIC) against intermediate or resistant strains; format: cell-based; settings: Helicobacter pylori, read-out: MIC
[4] = test system: amoxicillin/clarithromycin/metronidazole - susceptible strains of Helicobacter pylori; test: Bacteriostatic activity (MIC) against susceptible strains; format: cell-based; settings: for MIC: Helicobacter pylori, read-out: MIC

C[S+]([O-])CCCCN=C=S (stereo not drawn) [Sulforaphane, 4-methylsulfinylbutyl isothiocyanate]
−1.30 log10CFU: Actual reductions (log10CFU) (Helicobacter pylori [2]; HP 2, 4 h, 20x MIC) | Actual reductions (log10CFU) (Helicobacter pylori [2]; HP 2, 8 h, 10x MIC)
0.5 µg/mL: MIC ([3]; H. pylori strain no 34) | MIC ([3]; H. pylori strain no 37) | MIC ([3]; H. pylori strain no 39) | MIC ([3]; H. pylori strain no 44) | MIC ([4]; H. pylori strain no 8) | MIC ([4]; H. pylori strain no 17) | MIC ([4]; H. pylori strain no 18) | MIC ([4]; H. pylori strain no 20) | MIC ([4]; H. pylori strain no 21) | MIC ([4]; H. pylori strain no 25) | MIC ([4]; H. pylori strain no 26) | MIC ([4]; H. pylori strain no 28)
−1.40 log10CFU: Actual reductions (log10CFU) (Helicobacter pylori [2]; HP 2, 8 h, 20x MIC) | Actual reductions (log10CFU) (Helicobacter pylori [2]; HP 2, 24 h, 20x MIC) | Actual reductions (log10CFU) (Helicobacter pylori [2]; HP 2, 48 h, 10x MIC) | Actual reductions (log10CFU) (Helicobacter pylori [2]; HP 2, 48 h, 20x MIC)
8 h: Time (h) at which 99.9% intracellular killing was observed (Helicobacter pylori [2]; HP 1, 1 × MIC, tested in triplicate) | Time (h) at which 99.9% intracellular killing was observed (Helicobacter pylori [2]; HP 1, 5 × MIC, tested in triplicate) | Time (h) at which 99.9% intracellular killing was observed (Helicobacter pylori [2]; HP 1, 10 × MIC, tested in triplicate) | Time (h) at which 99.9% intracellular killing was observed (Helicobacter pylori [2]; HP 1, 20 × MIC, tested in triplicate) | Time (h) at which 99.9% intracellular killing was observed (Helicobacter pylori [2]; HP 4, 1 × MIC, tested in duplicate, not definitive) | Time (h) at which 99.9% intracellular killing was observed (Helicobacter pylori [2]; HP 4, 5 × MIC, tested in duplicate, not definitive) | Time (h) at which 99.9% intracellular killing was observed (Helicobacter pylori [2]; HP 4, 10 × MIC, tested in duplicate, not definitive)
0 log10CFU: Actual reductions (log10CFU) (Helicobacter pylori [2]; HP 2, 2 h, 1x MIC) | Actual reductions (log10CFU) (Helicobacter pylori [2]; HP 2, 2 h, 5x MIC) | Actual reductions (log10CFU) (Helicobacter pylori [2]; HP 2, 2 h, 10x MIC)
−0.12 log10CFU: Actual reductions (log10CFU) (Helicobacter pylori [2]; HP 2, 2 h, 20x MIC)
−1.20 log10CFU: Actual reductions (log10CFU) (Helicobacter pylori [2]; HP 2, 24 h, 5x MIC) | Actual reductions (log10CFU) (Helicobacter pylori [2]; HP 2, 48 h, 1x MIC) | Actual reductions (log10CFU) (Helicobacter pylori [2]; HP 2, 48 h, 5x MIC)
−1.17 log10CFU: Actual reductions (log10CFU) (Helicobacter pylori [2]; HP 2, 4 h, 10x MIC)
−1.34 log10CFU: Actual reductions (log10CFU) (Helicobacter pylori [2]; HP 2, 24 h, 10x MIC)
1 µg/mL: MIC ([3]; H. pylori strain no 45) | MIC ([4]; H. pylori strain no 16) | MIC ([4]; H. pylori strain no 24)
8 µg/mL: MIC ([3]; H. pylori strain no 43)
2 h: Time (h) at which 99.9% intracellular killing was observed (Helicobacter pylori [2]; HP 3, 20 × MIC, tested in triplicate)
0.06 µg/mL: MIC (Helicobacter pylori [1]; strain HP 4) | MIC ([4]; H. pylori strain no 6) | MIC ([4]; H. pylori strain no 7) | MIC ([4]; H. pylori strain no 10) | MIC ([4]; H. pylori strain no 14) | MIC ([4]; H. pylori strain no 15) | MIC ([4]; H. pylori strain no 22) | MIC ([4]; H. pylori strain no 23) | MIC ([4]; H. pylori strain no 27) | MIC ([4]; H. pylori strain no 30)
as effective, if not more effective: inhibiting the growth of H. pylori compared to traditional antibiotics ([4]; versus amoxycillin, clarithromycin and metronidazole, several strains (Tables 1 and 2))
−0.90 log10CFU: Actual reductions (log10CFU) (Helicobacter pylori [2]; HP 2, 4 h, 5x MIC) | Actual reductions (log10CFU) (Helicobacter pylori [2]; HP 2, 8 h, 1x MIC) | Actual reductions (log10CFU) (Helicobacter pylori [2]; HP 2, 8 h, 5x MIC)
0.125 µg/mL: MIC ([3]; H. pylori strain no 41)
−1.18 log10CFU: Actual reductions (log10CFU) (Helicobacter pylori [2]; HP 2, 24 h, 1x MIC)
2 µg/mL: MIC (Helicobacter pylori [1]; strain HP 1) | MIC (Helicobacter pylori [1]; strain HP 2) | MIC ([3]; H. pylori strain no 38) | MIC ([3]; H. pylori strain no 46) | MIC ([4]; H. pylori strain no 1) | MIC ([4]; H. pylori strain no 3) | MIC ([4]; H. pylori strain no 9) | MIC ([4]; H. pylori strain no 11) | MIC ([4]; H. pylori strain no 19) | MIC ([4]; H. pylori strain no 29) | MIC ([4]; H. pylori strain no 32)
4 h: Time (h) at which 99.9% intracellular killing was observed (Helicobacter pylori [2]; HP 3, 1 × MIC, tested in triplicate) | Time (h) at which 99.9% intracellular killing was observed (Helicobacter pylori [2]; HP 3, 5 × MIC, tested in triplicate) | Time (h) at which 99.9% intracellular killing was observed (Helicobacter pylori [2]; HP 3, 10 × MIC, tested in triplicate) | Time (h) at which 99.9% intracellular killing was observed (Helicobacter pylori [2]; HP 4, 20 × MIC, tested in duplicate, not definitive)
−0.79 log10CFU: Actual reductions (log10CFU) (Helicobacter pylori [2]; HP 2, 4 h, 1x MIC)
4 µg/mL: MIC (Helicobacter pylori [1]; strain HP 3) | MIC ([3]; H. pylori strain no 33) | MIC ([3]; H. pylori strain no 35) | MIC ([3]; H. pylori strain no 36) | MIC ([3]; H. pylori strain no 40) | MIC ([3]; H. pylori strain no 42) | MIC ([3]; H. pylori strain no 47) | MIC ([4]; H. pylori strain no 2) | MIC ([4]; H. pylori strain no 4) | MIC ([4]; H. pylori strain no 5) | MIC ([4]; H. pylori strain no 12) | MIC ([4]; H. pylori strain no 13) | MIC ([4]; H. pylori strain no 31)

Source: patent publication US6737441B2, “Treatment of helicobacter with isothiocyanates” (priority 2000, dated 2004)
